# Test results: ChEMBL document CHEMBL5050844 (2019)
# Assays:
# [1] = Induction of allogenic human T cell activation at 3 uM assessed fold increase in cell proliferation; format: functional, T cell line
# [2] = Induction of anti-CD3/CD28 antibodies-stimulated human T cell activation at 1.11 uM assessed fold increase in TNF-alpha secretion measured by ELISA assay; format: functional, T cell line
# [3] = Induction of anti-CD3 antibodies-stimulated human CD8+ T cell activation at 1.11 uM assessed fold increase in CD69 expression measured by flow cytometry analysis; format: functional, T cell line; also: reference of the scale not given here
# [4] = Induction of anti-CD3/CD28 antibodies-stimulated human CD4+ T cell activation at 10 uM assessed fold increase in cell proliferation measured by flow cytometry analysis; format: functional, T cell line
# [5] = Induction of anti-CD3/CD28 antibodies-stimulated human T cell activation at 4 uM assessed fold increase in IL-2 secretion measured by ELISA assay; format: functional, T cell line
# [6] = Induction of anti-CD3 antibodies-stimulated human CD8+ T cell activation at 10 uM assessed fold increase in cell proliferation measured by flow cytometry analysis; format: functional, T cell line; also: reference of the scale not given here
# [7] = Induction of anti-CD3 antibodies-stimulated human exhausted T cell activation assessed fold increase in IFN-gamma secretion measured by ELISA assay; format: functional, T cell line; also: reference of the scale not given here
# [8] = Induction of anti-CD3/CD28 antibodies-stimulated human CD4+ T cell activation at 1.11 uM assessed fold increase in cell proliferation measured by flow cytometry analysis; format: functional, T cell line
# [9] = Induction of anti-CD3/CD28 antibodies-stimulated human CD8+ T cell activation at 10 uM assessed fold increase in CD69 expression measured by flow cytometry analysis; format: functional, T cell line
# [10] = Induction of anti-CD3 antibodies-stimulated human T cell activation at 1.11 uM assessed fold increase in IFN-gamma secretion measured by ELISA assay; format: functional, T cell line; also: reference of the scale not given here
# [11] = Induction of anti-CD3 antibodies-stimulated human T cell activation at 1.11 uM assessed fold increase in TNF-alpha secretion measured by ELISA assay; format: functional, T cell line; also: reference of the scale not given here
# [12] = Induction of anti-CD3/CD28 antibodies-stimulated human T cell activation at 10 uM assessed fold increase in IFN-gamma secretion measured by ELISA assay; format: functional, T cell line
# [13] = Induction of activation of human CD56+ CD3- NK cells co-cultured with human K562 cells in 1:1 ratio and assessed as increase in TNF-alpha secretion at 2.5 uM measured by ELISA assay; format: functional, Natural killer cell
# [14] = Induction of anti-CD3/CD28 antibodies-stimulated human anergic T cell activation at 1.11 uM assessed fold increase in IFN-gamma secretion measured by ELISA assay; format: functional, T cell line
# [15] = Induction of anti-CD3/CD28 antibodies-stimulated human T cell activation at 10 uM assessed fold increase in GM-CSF secretion measured by ELISA assay; format: functional, T cell line
# [16] = target: T1, E3 ubiquitin-protein ligase CBL-B (Homo sapiens, UniProt Q13191); experiment: Binding affinity towards N-terminal biotinylated Avi-tagged human CBL-B (36 to 427 residues) measured by surface plasmon resonance assay
# T1 sequence (Q13191 whole entry, the tested form may be a part): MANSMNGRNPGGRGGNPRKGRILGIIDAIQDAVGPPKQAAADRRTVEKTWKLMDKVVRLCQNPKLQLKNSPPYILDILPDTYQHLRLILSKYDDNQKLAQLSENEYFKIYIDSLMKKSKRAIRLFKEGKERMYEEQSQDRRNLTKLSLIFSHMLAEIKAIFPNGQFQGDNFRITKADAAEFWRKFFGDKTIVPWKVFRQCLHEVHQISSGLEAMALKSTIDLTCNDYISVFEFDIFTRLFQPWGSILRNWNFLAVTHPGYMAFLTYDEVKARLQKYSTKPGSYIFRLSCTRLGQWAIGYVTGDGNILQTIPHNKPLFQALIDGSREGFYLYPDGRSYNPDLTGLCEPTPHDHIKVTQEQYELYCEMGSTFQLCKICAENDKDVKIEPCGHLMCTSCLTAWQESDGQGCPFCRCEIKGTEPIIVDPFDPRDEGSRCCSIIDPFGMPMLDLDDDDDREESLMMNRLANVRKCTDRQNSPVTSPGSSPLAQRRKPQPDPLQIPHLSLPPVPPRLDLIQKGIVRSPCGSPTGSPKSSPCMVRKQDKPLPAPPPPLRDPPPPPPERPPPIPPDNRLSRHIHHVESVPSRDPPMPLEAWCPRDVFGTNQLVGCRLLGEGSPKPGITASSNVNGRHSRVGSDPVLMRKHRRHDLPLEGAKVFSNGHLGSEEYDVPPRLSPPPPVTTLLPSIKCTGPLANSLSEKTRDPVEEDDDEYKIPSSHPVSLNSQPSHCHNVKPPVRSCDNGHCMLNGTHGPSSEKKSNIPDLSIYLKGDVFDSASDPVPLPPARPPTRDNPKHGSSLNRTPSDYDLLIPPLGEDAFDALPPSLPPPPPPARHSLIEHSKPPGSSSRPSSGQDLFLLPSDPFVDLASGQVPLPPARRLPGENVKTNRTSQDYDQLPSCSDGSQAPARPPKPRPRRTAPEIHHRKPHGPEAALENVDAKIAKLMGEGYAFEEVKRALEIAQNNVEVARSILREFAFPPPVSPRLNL
# [17] = target: T1, E3 ubiquitin-protein ligase CBL-B; experiment: Inhibition of N-terminal Avi-tagged human CBL-B (36 to 427 residues) incubated with 60 nM Src kinase for 1.5 hrs followed by incubation with fluorescently labeled UbcH5B-Ub for 1 hr and measured by TR-FRET assay; format: single protein
Structure (SMILES),fold change (FC) [1],fold change (FC) [2],fold change (FC) [3],fold change (FC) [4],fold change (FC) [5],fold change (FC) [6],fold change (FC) [7],fold change (FC) [8],fold change (FC) [9],fold change (FC) [10],fold change (FC) [11],fold change (FC) [12],fold change (FC) [13],fold change (FC) [14],fold change (FC) [15],Kd [16] [µM],IC50 [17] [µM]
C[C@H](Cc1nncn1C)c1cccc(NC(=O)c2cccc(CCO)n2)c1,<=2,<=1.5,<=1.2,3.01,2.51,<=2,<=1.4,<=2,<=1.2,<=2,<=1.5,>4,1.01,<=2.5,1.51,–,–
Cc1cc(C(=O)Nc2cccc([C@@H](C)Cc3nncn3C)c2)nc(C2CC2)n1,<=2,<=1.5,<=1.2,>4,2.51,>4,<=1.4,>4,1.201,<=2,<=1.5,>4,<=1,<=2.5,2.01,–,–
Cc1n[nH]c(C)c1-c1cc2c(c(C(F)(F)F)c1)CN(c1cccc(C3(Cc4nncn4C)COC3)c1)C2=O,<=2,1.51,1.201,>4,>=7.5,>4,1.41,>4,1.201,<=2,<=1.5,>4,1.01,<=2.5,2.01,< 0.1,< 0.1
C[C@H](Cc1nncn1C)c1cccc(NC(=O)c2nc(C(F)(F)F)c[nH]2)c1,<=2,<=1.5,<=1.2,>4,2.51,>4,>1.61,2.01,1.201,<=2,<=1.5,2.01,2.01,<=2.5,2.01,–,–
C[C@H](Cc1nncn1C)c1cccc(NC(=O)c2cc3cc(N4CCNCC4)ccc3cn2)c1.Cl,<=2,1.51,<=1.2,>4,2.51,<=2,>1.61,3.01,1.201,<=2,<=1.5,<=2,<=1,<=2.5,2.01,< 0.1,< 0.1
Cc1cc2c(c(C3CC3)n1)CN(c1cccc([C@H](C)Cc3nncn3C)c1)C2=O,<=2,<=1.5,<=1.2,>4,2.51,2.01,<=1.4,<=2,1.201,<=2,<=1.5,<=2,<=1,<=2.5,2.01,–,–
Cn1cnnc1[C@@H]1C[C@@H]1c1cccc(N2Cc3c(ccnc3C(F)(F)F)C2=O)c1,<=2,<=1.5,<=1.2,>4,1.01,<=2,<=1.4,<=2,1.201,<=2,<=1.5,<=2,<=1,<=2.5,2.01,–,–
C[C@H](Cc1nncn1C)c1cccc(N2Cc3c(cc(CN4CC[C@](C)(O)C4)cc3C(F)(F)F)C2=O)c1,2.01,2.01,1.201,>4,>=7.5,>4,>1.61,>4,1.201,<=2,<=1.5,>4,2.01,>4.01,>4,< 0.1,< 0.1
C[C@H](Cc1nncn1C)c1cccc(N2Cc3c(cc(CN4CC(C)(O)C4)cc3C(F)(F)F)C2=O)c1,<=2,2.01,1.201,>4,>=7.5,>4,>1.61,>4,1.201,<=2,1.51,>4,2.01,>4.01,>4,< 0.1,< 0.1
Cn1cnnc1C(F)(F)[C@](C)(F)c1cccc(N2Cc3c(cc(CN4CC[C@@H](C#N)C4)cc3C(F)(F)F)C2=O)c1,<=2,2.01,1.201,>4,>=7.5,>4,>1.61,>4,1.201,2.01,<=1.5,>4,2.01,2.51,>4,–,< 0.1
C[C@H](Cc1nncn1C)c1cccc(N2Cc3c(ccnc3C3CC3)C2=O)c1,<=2,1.51,<=1.2,>4,1.01,3.01,>1.61,2.01,1.201,<=2,<=1.5,2.01,1.01,<=2.5,>4,–,–
C[C@H](Sc1nncn1C)c1cccc(NC(=O)c2cc(C(=O)N3CC[C@H](O)C3)ccn2)c1,<=2,2.01,1.401,>4,<=1,>4,<=1.4,>4,1.201,3.01,1.51,>4,<=1,<=2.5,>4,–,–
C[C@H](Cc1nncn1C)c1cccc(NC(=O)c2n[nH]c3c2CCC3)c1,<=2,<=1.5,1.401,>4,2.51,2.01,<=1.4,>4,1.201,2.01,<=1.5,2.01,1.01,<=2.5,2.01,–,–
Cn1cnnc1CC1(c2cccc(N3Cc4c(cc(CN5CC[C@H](C#N)C5)cc4C(F)(F)F)C3=O)c2)COC1,<=2,2.01,<=1.2,>4,>=7.5,>4,<=1.4,>4,1.201,<=2,<=1.5,>4,1.01,2.51,>4,–,< 0.1
